Laboratory results reported in PubChem BioAssay (NCI).
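Abbreviation: GI50, concentration required for 50% inhibition of growth. At the TGI there is no net growth.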

Experiments:
Test in all cases: growth of human tumour cells (NCI), 384-well format
786-0 renal = tested on: 786-0 renal
A498 renal = tested on: A498 renal
A549 NSCLC = tested on: A549 NSCLC
ACHN renal = tested on: ACHN renal
BT-549 breast = tested on: BT-549 breast
CAKI-1 renal = tested on: CAKI-1 renal
CCRF-CEM leukemia = tested on: CCRF-CEM leukemia
COLO 205 colon = tested on: COLO 205 colon
DU-145 prostate = tested on: DU-145 prostate
EKVX NSCLC = tested on: EKVX NSCLC
HCC-2998 colon = tested on: HCC-2998 colon
HCT-116 colon = tested on: HCT-116 colon
HCT-15 colon = tested on: HCT-15 colon
HL-60(TB) leukemia = tested on: HL-60(TB) leukemia
HOP-62 NSCLC = tested on: HOP-62 NSCLC
HOP-92 NSCLC = tested on: HOP-92 NSCLC
HS 578T breast = tested on: HS 578T breast
HT29 colon = tested on: HT29 colon
IGROV1 ovarian = tested on: IGROV1 ovarian
K-562 leukemia = tested on: K-562 leukemia
KM12 colon = tested on: KM12 colon
LOX IMVI melanoma = tested on: LOX IMVI melanoma
M14 melanoma = tested on: M14 melanoma
MALME-3M melanoma = tested on: MALME-3M melanoma
MCF7 breast = tested on: MCF7 breast
MDA-MB-231 breast = tested on: MDA-MB-231 breast
MDA-MB-435 melanoma = tested on: MDA-MB-435 melanoma
MDA-MB-468 breast = tested on: MDA-MB-468 breast
MOLT-4 leukemia = tested on: MOLT-4 leukemia
NCI-H226 lung = tested on: NCI-H226 lung
NCI-H23 lung = tested on: NCI-H23 lung
NCI-H322M lung = tested on: NCI-H322M lung
NCI-H460 NSCLC = tested on: NCI-H460 NSCLC
NCI-H522 lung = tested on: NCI-H522 lung
NCI/ADR-RES ovarian = tested on: NCI/ADR-RES ovarian
OVCAR-3 ovarian = tested on: OVCAR-3 ovarian
OVCAR-4 ovarian = tested on: OVCAR-4 ovarian
OVCAR-5 ovarian = tested on: OVCAR-5 ovarian
OVCAR-8 ovarian = tested on: OVCAR-8 ovarian
PC-3 prostate = tested on: PC-3 prostate
RPMI-8226 leukemia = tested on: RPMI-8226 leukemia
RXF 393 renal = tested on: RXF 393 renal
SF-268 CNS = tested on: SF-268 CNS
SF-295 CNS = tested on: SF-295 CNS
SF-539 CNS = tested on: SF-539 CNS
SK-MEL-28 melanoma = tested on: SK-MEL-28 melanoma
SK-MEL-5 melanoma = tested on: SK-MEL-5 melanoma
SK-OV-3 ovarian = tested on: SK-OV-3 ovarian
SN12C renal = tested on: SN12C renal
SNB-19 CNS = tested on: SNB-19 CNS
SNB-75 CNS = tested on: SNB-75 CNS
SW-620 colon = tested on: SW-620 colon
T-47D breast = tested on: T-47D breast
TK-10 renal = tested on: TK-10 renal
U251 glioblastoma = tested on: U251 glioblastoma
UACC-257 melanoma = tested on: UACC-257 melanoma
UACC-62 melanoma = tested on: UACC-62 melanoma
UO-31 renal = tested on: UO-31 renal

## CC(C)(F)C[C@H](N[C@@H](c1ccc(-c2ccc(S(C)(=O)=O)cc2)cc1)C(F)(F)F)C(=O)NC1(C#N)CC1
786-0 renal
  GI50: 21.9 µM
  TGI: 53.5 µM
A498 renal
  GI50: 21.3 µM
  TGI: 46.7 µM
A549 NSCLC
  GI50: 34.9 µM
  TGI: > 100 µM
ACHN renal
  GI50: > 100 µM
  TGI: > 100 µM
BT-549 breast
  GI50: 39.7 µM
  TGI: > 100 µM
CAKI-1 renal
  GI50: 30.5 µM
  TGI: > 100 µM
CCRF-CEM leukemia
  GI50: > 100 µM
  TGI: > 100 µM
COLO 205 colon
  GI50: > 100 µM
  TGI: > 100 µM
DU-145 prostate
  GI50: 46.4 µM
  TGI: > 100 µM
EKVX NSCLC
  GI50: 39.2 µM
  TGI: > 100 µM
HCC-2998 colon
  GI50: > 100 µM
  TGI: > 100 µM
HCT-116 colon
  GI50: > 100 µM
  TGI: > 100 µM
HCT-15 colon
  GI50: > 100 µM
  TGI: > 100 µM
HL-60(TB) leukemia
  GI50: > 100 µM
  TGI: > 100 µM
HOP-62 NSCLC
  GI50: 22.8 µM
  TGI: 63 µM
HOP-92 NSCLC
  GI50: 11.2 µM
  TGI: 28.9 µM
HS 578T breast
  GI50: 21.2 µM
  TGI: 45.3 µM
HT29 colon
  GI50: > 100 µM
  TGI: > 100 µM
IGROV1 ovarian
  GI50: > 100 µM
  TGI: > 100 µM
K-562 leukemia
  GI50: > 100 µM
  TGI: > 100 µM
KM12 colon
  GI50: 43.6 µM
  TGI: > 100 µM
LOX IMVI melanoma
  GI50: 59.3 µM
  TGI: > 100 µM
M14 melanoma
  GI50: 71.5 µM
  TGI: > 100 µM
MALME-3M melanoma
  GI50: 33.7 µM
  TGI: 86.9 µM
MCF7 breast
  GI50: 27.3 µM
  TGI: 91.1 µM
MDA-MB-231 breast
  GI50: 39.6 µM
  TGI: > 100 µM
MDA-MB-435 melanoma
  GI50: 96.2 µM
  TGI: > 100 µM
MDA-MB-468 breast
  GI50: 39.4 µM
  TGI: > 100 µM
MOLT-4 leukemia
  GI50: 41.1 µM
  TGI: > 100 µM
NCI-H226 lung
  GI50: 23.5 µM
  TGI: 54.6 µM
NCI-H23 lung
  GI50: 30.9 µM
  TGI: 83 µM
NCI-H322M lung
  GI50: 49.8 µM
  TGI: > 100 µM
NCI-H460 NSCLC
  GI50: 22.4 µM
  TGI: 53.8 µM
NCI-H522 lung
  GI50: 21.4 µM
  TGI: 40.2 µM
NCI/ADR-RES ovarian
  GI50: 88.1 µM
  TGI: > 100 µM
OVCAR-3 ovarian
  GI50: 31.1 µM
  TGI: 76.7 µM
OVCAR-4 ovarian
  GI50: 19.8 µM
  TGI: 38 µM
OVCAR-5 ovarian
  GI50: > 100 µM
  TGI: > 100 µM
OVCAR-8 ovarian
  GI50: 20.7 µM
  TGI: 46.1 µM
PC-3 prostate
  GI50: 41.3 µM
  TGI: > 100 µM
RPMI-8226 leukemia
  GI50: 55.9 µM
  TGI: > 100 µM
RXF 393 renal
  GI50: 18.3 µM
  TGI: 35.3 µM
SF-268 CNS
  GI50: 22.1 µM
  TGI: 41 µM
SF-295 CNS
  GI50: 22.9 µM
  TGI: 63.4 µM
SF-539 CNS
  GI50: 23.1 µM
  TGI: 44.1 µM
SK-MEL-28 melanoma
  GI50: 40.9 µM
  TGI: > 100 µM
SK-MEL-5 melanoma
  GI50: 23 µM
  TGI: 55.8 µM
SK-OV-3 ovarian
  GI50: 27.3 µM
  TGI: 69.6 µM
SN12C renal
  GI50: 34.9 µM
  TGI: > 100 µM
SNB-19 CNS
  GI50: 35.7 µM
  TGI: 92.4 µM
SNB-75 CNS
  GI50: 20.5 µM
  TGI: 37.3 µM
SW-620 colon
  GI50: > 100 µM
  TGI: > 100 µM
T-47D breast
  GI50: 36.6 µM
  TGI: > 100 µM
TK-10 renal
  GI50: 33.1 µM
  TGI: 97.9 µM
U251 glioblastoma
  GI50: 24.7 µM
  TGI: 55.5 µM
UACC-257 melanoma
  GI50: 26.7 µM
  TGI: 55.4 µM
UACC-62 melanoma
  GI50: 42.1 µM
  TGI: > 100 µM
UO-31 renal
  GI50: > 100 µM
  TGI: > 100 µM
